Key:
HIV-1 [1] = experiment: HIV-1 induced syncytia assay, IIIb infected H9 cells cocultured with Supt-1 target cells; format: cell-based; set-up: key to number of syncytia formed: 4 being multiple syncytia widely distributed; 0 indicating no syncytia observed; s=small; m=medium; L=large syncytia; conditions: for number of syncytia formed: HIV-1, number and size of syncytia
Method: For the assay of HIV-1 fusion, Supt T1 cells were used as target cells. They fuse rapidly when cocultured with HIV-1 (H9/IIIb) producing cell lines. For the assay of HIV-2 mediated cell fusion, H9 cells were used as target cells. They fuse rapidly when cocultured with HIV-2 (CEMROD-2) producing cell lines. HIV infected cells were plated in 96 well plates (10⁴ cells/well in RPMI 1640 + 10% FCS) and incubated with or without dilution of compounds for 30 minutes at 37°C. Target cells are then added 5 x 10⁵/well and the number of syncytia are qualitatively determined after the incubation periods described in the text.
In a series of additional experiments, analysis of HIV-1 induced syncytia was performed by coculturing H9 cells infected with the IIIb isolate with uninfected Supt-1 (a human CD4+ T cell line) cells as targets. […]

HIV-1 [2] = experiment: Structural studies: electron microscopy of virus particle production by infected cells; format: cell-based
Method: Virus infected cells were washed and resuspended in fresh media in the presence or absence of test compounds. After a 48 hour culture period the cultures were pelleted and fixed in 1% glutaraldehyde, 0.1 M Cacodylate-HC1, pH 7.3 followed by OsO₄, and embedded in spur resin for examination of these sections by electron microscopy.
To further address this point, we analyzed virus particle production in the presence of specifically substituted cyclodextrins by electron microscopic examination. Virus infected cells were washed and resuspended in fresh media in the presence or absence of test compounds. After a 48 hour culture period, the cultures were pelleted and fixed in 1% glutaraldehyde, 0.1 M Cacodylate-HC1, pH 7.3 followed by OsO₄ and embedded in spur resin for examination of thin sections.

beta-cyclodextrin tetradecasulfate [Beta-CD-14S]
number of syncytia formed (HIV-1 [1]; 1.3 mM): 0
number of syncytia formed (HIV-1 [1]; 2.5 mM): 0
number of syncytia formed (HIV-1 [1]; .01 mM): 4 L
number of syncytia formed (HIV-1 [1]; .02 mM): 4 L
number of syncytia formed (HIV-1 [1]; .04 mM): 3 L
number of syncytia formed (HIV-1 [1]; .08 mM): 2m
number of syncytia formed (HIV-1 [1]; .16 mM): 1 s
number of syncytia formed (HIV-1 [1]; .32 mM): 0
number of syncytia formed (HIV-1 [1]; .63 mM): 0
inhibiting syncytia formation of HIV-1 (HIV-1 [1]; result in words): extremely high antisyncytia activity
morphology of viral particles produced (HIV-1 [2]; 300 µM, 48 hour culture): typical of the lentivirus family
morphology of the viral particles produced (HIV-1 [2]; infected H9 cells, 1 mM): mature morphology
